Assay [1] deals with SHP-2 enzyme (Met1-Leu525) (Homo sapiens (Human), UniProt Q06124). In words: SHP2 inhibition enzymatic assay. The format is biochemical. The note with it: 0.5 nM SHP-2 activated by 500 nM IRS1 peptide, 75 μM DiFMUP substrate; read-out: SHP2wt-IC50. The protocol:
The assay was performed as described in YP Chen et al, Nature (535)2016. Assay volume of 20 μL/well was assembled in 384 well black polystyrene low-binding microplates (Greiner), using the following buffer: 60 mM HEPES pH 7.2, 75 mM NaCl, 75 mM KCl, 1 mM EDTA pH 8, 0.05% tween-20, 5 mM DTT. The SHP-2 enzyme (synthetized by Origene, Met1-Leu525, cat #TP750155) was used at a final concentration of 0.5 nM. The enzyme was activated by 500 nM IRS1 peptide (sequence: H2N-LN(pY)IDLDLV(dPEG8)LST(pY)ASINFQK-amide SEQ ID No. 1) and incubated with 75 μM DiFMUP (Sigma) as substrate.
Briefly, DMSO serially diluted testing compounds were transferred to the bottom of the assay plate. SHP2 was then added together with the IRS1 peptide. 30 min post incubation, the DiFMUP substrate was added to the reaction and incubated 30 min at room temperature. Finally 5 μL of 160 μM bpV (Potassium bisperoxo[1,10-phenanthroline]oxovanadate [V], Sigma) were added to stop and quench the reaction. The fluorescence was detected by a microplate reader (Envision, PerkinElmer) according to the DiFMUP excitation and emission wavelength. The lower the fluorescence the higher the SHP2 inhibition. […] The percentage inhibition is fitted against the compound dilutions with a four-parameter logistic regression. The inflection point (i.e. the concentration at which half-maximal inhibition is achieved) is the IC50.

In assay [2] the test system is ERK phosphorylation in KYSE-520 cells. Description: Phospho-ERK cellular assay. The conditions noted are these: KYSE-520 cells, 2 h at 37° C., phospho-ERK1/2 (Thr202/Tyr204) TR-FRET, read-out: PERK IC50. It is filed as cell-based. The protocol: ERK phosphorylation was detected using the “Advanced phospho-ERK1/2 (Thr202/Tyr204)” TR-FRET kit (Cisbio, Cat #64AERPEG/H), following the manufacturer reagents and instructions.
Briefly, 20.000/well KYSE-520 cells (DSMZ ACC 371) were plated in 6 μL RPMI-1640 (Invitrogen) growth medium, into 384 white low-volume high base TC microplates (Greiner). After an overnight incubation, cells were treated with DMSO serial diluted compounds and incubated for 2 h at 37° C. After incubation, 2 μL/well of 4×Lysis Buffer (Cisbio 64KL1FDF), were added and incubated with cells for 30 min on gentle shaking. Finally, lysates were added with 2 μL/well of Eu cryptate (donor) and D2 (acceptor) conjugated antibodies (as provided by the Cisbio kit #64AERPEG/H) diluted 1:100 in Detection Buffer (as provided by the Cisbio kit #64AERPEG/H). Plates were then sealed and incubated at room temperature in the dark. After an overnight incubation, the TR-FRET signal was detected on a suitable reader (Envision, PerkinElmer). The lower the TR-FRET signal the higher the higher the SHP2 inhibition in cells.
The activity of each compound dilution was calculated as percentage between vehicle DMSO treated cells and no cells, 0% inhibition and 100% inhibition respectively. The percentage activity is fitted against the compound dilutions with a four-parameter logistic regression. The inflection point (i.e. the concentration at which half-maximal inhibition is achieved) is the IC50.
On the technique in general: In TR-FRET formats the signal depends on donor and acceptor labels being close together.

Read-outs that look alike come from different tables or passages of the source. Some results are limits rather than exact numbers.

In general, IC50 refers to the concentration that gives 50% inhibition.

SHP-2 enzyme (Met1-Leu525), sequence (Q06124 1-525): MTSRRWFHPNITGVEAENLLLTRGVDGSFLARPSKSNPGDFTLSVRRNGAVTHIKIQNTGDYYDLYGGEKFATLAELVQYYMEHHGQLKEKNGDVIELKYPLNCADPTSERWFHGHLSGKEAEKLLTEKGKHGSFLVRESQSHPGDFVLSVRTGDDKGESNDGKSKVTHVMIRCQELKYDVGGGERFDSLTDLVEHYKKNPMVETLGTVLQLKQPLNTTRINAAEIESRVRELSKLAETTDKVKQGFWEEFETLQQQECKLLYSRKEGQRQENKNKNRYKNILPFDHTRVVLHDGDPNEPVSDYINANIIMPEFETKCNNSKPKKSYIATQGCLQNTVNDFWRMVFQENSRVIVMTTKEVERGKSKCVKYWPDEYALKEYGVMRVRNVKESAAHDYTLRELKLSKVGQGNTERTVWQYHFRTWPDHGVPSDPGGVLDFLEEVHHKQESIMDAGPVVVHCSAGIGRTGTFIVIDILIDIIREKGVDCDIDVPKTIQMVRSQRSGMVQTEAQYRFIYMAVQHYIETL

As to `Cc1csc([C@@]2(CN)[C@@H]3CN(c4cnc5c(-c6ccc7ncn(C)c7c6Cl)n[nH]c5n4)C[C@@H]32)n1` [Example 483], the IC50 in assay [1] is less than 500 nM; in assay [2] it was less than 1000 nM.

With `Cc1c(-c2n[nH]c3nc(N4CC[C@@H]5[C@H](C4)[C@@]5(CN)c4ccccc4F)cnc23)ccc2nn(C)cc12` [Example 145, ((1S,6R,7R)-3-(3-(2,4-dimethyl-2H-indazol-5-yl)-1H-pyrazolo[3,4-b]pyrazin-6-yl)-7-(2-fluorophenyl)-3-azabicyclo[4.1.0]heptan-7-yl)methanamine], the IC50 in assay [1] was less than 500 nM; in assay [2] (Homo sapiens, KYSE-520, 2 h), less than 1000 nM.

Take `Cn1cc2c(Cl)c(-c3n[nH]c4nc(N5C[C@@H]6[C@H](C5)[C@@]6(CN)c5ccc(F)cn5)cnc34)ccc2n1` [Example 495, ((1R,5S,6r)-3-(3-(4-chloro-2-methyl-2H-indazol-5-yl)-1H-pyrazolo[3,4-b]pyrazin-6-yl)-6-(5-fluoropyridin-2-yl)-3-azabicyclo[3.1.0]hexan-6-yl)methanamine]: the IC50 in assay [1] is less than 500 nM; in assay [2] (Homo sapiens, KYSE-520, 2 h), less than 1000 nM.

Turning to `Cc1csc([C@@]2(CN)[C@@H]3CN(c4cnc5c(-c6ccc7nscc7c6Cl)n[nH]c5n4)C[C@@H]32)n1` [Example 463], the IC50 in assay [1] was less than 500 nM; in assay [2], less than 1000 nM.

On to `NC[C@]1(c2ccccc2F)[C@@H]2CCN(c3cnc4c(-c5ccnc6occc56)n[nH]c4n3)C[C@@H]21` [Example 186, ((1S,6R,7R)-7-(2-fluorophenyl)-3-(3-(furo[2,3-b]pyridin-4-yl)-1H-pyrazolo[3,4-b]pyrazin-6-yl)-3-azabicyclo[4.1.0]heptan-7-yl)methanamine], for which the IC50 in assay [1] is less than 500 nM; in assay [2] (Homo sapiens, KYSE-520, 2 h) it was less than 1000 nM.

As for `NC[C@]1(c2ccccc2F)[C@@H]2CCN(c3cnc4c(-c5ccc6c(c5)ncn6C(F)F)n[nH]c4n3)C[C@@H]21` [Example 418], the IC50 was less than 500 nM in assay [1] and less than 1000 nM in assay [2].

For the molecule `NCC1(c2ccccc2F)C2CCN(c3cnc4c(-c5cccc(Cl)c5Cl)n[nH]c4n3)CC21` (stereo not shown) [Example 3, (3-(3-(2,3-dichlorophenyl)-1H-pyrazolo[3,4-b]pyrazin-6-yl)-7-(2-fluorophenyl)-3-azabicyclo[4.1.0]heptan-7-yl)methanamine], the IC50 in assay [1] was less than 500 nM; in assay [2] (Homo sapiens, KYSE-520, 2 h) it was less than 1000 nM.

With `CS(=O)(=O)c1ccc(-c2n[nH]c3nc(N4CC[C@@H]5[C@H](C4)[C@@]5(CN)c4ccccc4F)cnc23)c2cccnc12` [Example 521, ((1S,6R,7R)-7-(2-fluorophenyl)-3-(3-(8-(methylsulfonyl)quinolin-5-yl)-1H-pyrazolo[3,4-b]pyrazin-6-yl)-3-azabicyclo[4.1.0]heptan-7-yl)methanamine], the IC50 in assay [1] was less than 500 nM; in assay [2] (Homo sapiens, KYSE-520, 2 h), less than 1000 nM.

Take `Cc1cc(C2(CN)C3CCN(c4cnc5c(-c6cccc7cnccc67)n[nH]c5n4)CC32)no1` (stereo not shown) [Example 23, (3-(3-(isoquinolin-5-yl)-1H-pyrazolo[3,4-b]pyrazin-6-yl)-7-(5-methylisoxazol-3-yl)-3-azabicyclo[4.1.0]heptan-7-yl)methanamine]: the IC50 in assay [1] is less than 500 nM; in assay [2] (Homo sapiens, KYSE-520, 2 h) it was less than 1000 nM.

Turning to `NCC1C2CCN(c3cnc4c(-c5cccc(Cl)c5Cl)n[nH]c4n3)CC12` (stereo not shown) [Example 100, (3-(3-(2,3-dichlorophenyl)-1H-pyrazolo[3,4-b]pyrazin-6-yl)-3-azabicyclo[4.1.0]heptan-7-yl)methanamine], the IC50 in assay [1] is less than 500 nM; in assay [2] (Homo sapiens, KYSE-520, 2 h), less than 1000 nM.

In the case of `Cc1c(-c2n[nH]c3nc(N4CC[C@@H]5[C@H](C4)[C@@]5(CN)c4ncc(C5CC5)cc4F)cnc23)ccc2nn(C)cc12` [Example 185, ((1S,6R,7S)-7-(5-cyclopropyl-3-fluoropyridin-2-yl)-3-(3-(2,4-dimethyl-2H-indazol-5-yl)-1H-pyrazolo[3,4-b]pyrazin-6-yl)-3-azabicyclo[4.1.0]heptan-7-yl)methanamine], the IC50 was less than 500 nM in assay [1] and less than 1000 nM in assay [2] (Homo sapiens, KYSE-520, 2 h).

As for `Cc1cc([C@@]2(CN)[C@@H]3CCN(c4cnc5c(-c6ccnc7cccc(F)c67)n[nH]c5n4)C[C@@H]32)no1` [Example 41, ((1S,6R,7S)-3-(3-(5-fluoroquinolin-4-yl)-1H-pyrazolo[3,4-b]pyrazin-6-yl)-7-(5-methylisoxazol-3-yl)-3-azabicyclo[4.1.0]heptan-7-yl)methanamine], the IC50 in assay [1] is less than 500 nM; in assay [2] (Homo sapiens, KYSE-520, 2 h), less than 1000 nM.

Turning to `Cc1cc(C2(CN)C3CCN(c4cnc5c(-c6cccc7c6CNC7=O)n[nH]c5n4)CC32)no1` (stereo not shown) [Example 19, 4-(6-(7-(aminomethyl)-7-(5-methylisoxazol-3-yl)-3-azabicyclo[4.1.0]heptan-3-yl)-1H-pyrazolo[3,4-b]pyrazin-3-yl)isoindolin-1-one], the IC50 in assay [1] is less than 500 nM; in assay [2] (Homo sapiens, KYSE-520, 2 h) it was less than 1000 nM.

As for `COCc1cc(C2(CN)C3CCN(c4cnc5c(-c6ccc7nn(C)cc7c6Cl)n[nH]c5n4)CC32)no1` (stereo not shown) [Example 47, (3-(3-(4-chloro-2-methyl-2H-indazol-5-yl)-1H-pyrazolo[3,4-b]pyrazin-6-yl)-7-(5-(methoxymethyl)isoxazol-3-yl)-3-azabicyclo[4.1.0]heptan-7-yl)methanamine], the IC50 in assay [1] is less than 500 nM; in assay [2] (Homo sapiens, KYSE-520, 2 h) it was less than 1000 nM.

For `CN(C)C(=O)C1(CN)C2CCN(c3cnc4c(-c5ccc6nn(C)cc6c5Cl)n[nH]c4n3)CC21` (stereo not shown) [Example 286, 7-(aminomethyl)-3-(3-(4-chloro-2-methyl-2H-indazol-5-yl)-1H-pyrazolo[3,4-b]pyrazin-6-yl)-N,N-dimethyl-3-azabicyclo[4.1.0]heptane-7-carboxamide], the IC50 in assay [1] is less than 500 nM; in assay [2] (Homo sapiens, KYSE-520, 2 h), greater than 5000 nM.

For `NC[C@]1(c2ccccc2F)[C@@H]2CCN(c3cnc4c(-c5cc(N)ncc5Cl)n[nH]c4n3)C[C@@H]21` [Example 196, 4-(6-((1S,6R,7R)-7-(aminomethyl)-7-(2-fluorophenyl)-3-azabicyclo[4.1.0]heptan-3-yl)-1H-pyrazolo[3,4-b]pyrazin-3-yl)-5-chloropyridin-2-amine], the concentration for half-maximal inhibition (IC50) in assay [1] is less than 500 nM; in assay [2] (Homo sapiens, KYSE-520, 2 h) it was less than 1000 nM.

Turning to `Cn1cc2ccc(-c3n[nH]c4nc(N5CC[C@@H]6[C@H](C5)[C@@]6(CN)c5ccccc5F)cnc34)c(Cl)c2n1` [Example 363, ((1S,6R,7R)-3-(3-(7-chloro-2-methyl-2H-indazol-6-yl)-1H-pyrazolo[3,4-b]pyrazin-6-yl)-7-(2-fluorophenyl)-3-azabicyclo[4.1.0]heptan-7-yl)methanamine], the IC50 was less than 500 nM in assay [1] and less than 1000 nM in assay [2] (Homo sapiens, KYSE-520, 2 h).

Take `COc1cccc2c(-c3n[nH]c4nc(N5CC[C@@H]6[C@H](C5)[C@@]6(CN)c5ccccc5F)cnc34)ccnc12` [Example 166, ((1S,6R,7R)-7-(2-fluorophenyl)-3-(3-(8-methoxyquinolin-4-yl)-1H-pyrazolo[3,4-b]pyrazin-6-yl)-3-azabicyclo[4.1.0]heptan-7-yl)methanamine]: the IC50 in assay [1] was less than 500 nM; in assay [2] (Homo sapiens, KYSE-520, 2 h), less than 1000 nM.

As to `NC[C@]1(c2ccccc2F)[C@@H]2CCN(c3cnc4c(-c5ccnc(-c6cnco6)c5Cl)n[nH]c4n3)C[C@@H]21` [Example 263, ((1S,6R,7R)-3-(3-(3-chloro-2-(oxazol-5-yl)pyridin-4-yl)-1H-pyrazolo[3,4-b]pyrazin-6-yl)-7-(2-fluorophenyl)-3-azabicyclo[4.1.0]heptan-7-yl)methanamine], the IC50 was less than 500 nM in assay [1] and less than 1000 nM in assay [2] (Homo sapiens, KYSE-520, 2 h).

For `Cc1cc(C2(CN)C3CCN(c4cnc5c(-c6ccc(C)c7ncccc67)n[nH]c5n4)CC32)no1` (stereo not shown) [Example 21, (7-(5-methylisoxazol-3-yl)-3-(3-(8-methylquinolin-5-yl)-1H-pyrazolo[3,4-b]pyrazin-6-yl)-3-azabicyclo[4.1.0]heptan-7-yl)methanamine], the IC50 was less than 500 nM in assay [1] and less than 1000 nM in assay [2] (Homo sapiens, KYSE-520, 2 h).

For the origin of these results see patent US20240109900A1, “AZABICYCLIC SHP2 INHIBITORS” (IRBM S.P.A., priority 2021, published 2024).
